Columns and labels:
melanoma cell = system: melanoma cell; design: method as in PMID 27572607; conditions: cited from earlier work
[1] = system: human malignant melanoma cell line IGR39; experiment: MTT cell viability assay, IGR39; type: cell-based; conditions: 50 µM, 72 h
Procedure: (§1) The effect of synthesized compounds on cell viability was studied using 3-(4,5-dimethylthiazol-2-yl)-2,5-diphenyltetrazolium bromide (MTT; Sigma-Aldrich Co., St Louis, MO, USA) assay, as described elsewhere. Briefly, IGR39, MDA-MB-231, Panc-1, and HF cells were seeded in 96-well plates (Corning) in triplicate at a volume of 100 μL (IGR39, MDA-MB-231 and Panc-1: 4 × 10^3 cells/well; HF: 5 × 10^3 cells/well). After 24 h, cells were treated with 50 μM of tested compounds. After 72 h, the MTT reagent was added and cells were incubated for 4 h. Then the medium was aspirated, and the formed formazan crystals were dissolved in 100 μL DMSO (Sigma-Aldrich Co., St. Louis, MO, USA). The absorbance was measured at 570 and 630 nm using a multi-detection microplate reader. The compound effect on cell viability was calculated using the formula:(1) Relative cell viability (%)=A−A0/ANC−A0 where
(§2) • A—mean of absorbance of the tested compound, • A0—mean of absorbance of blank (no cells, positive control), and • ANC—mean of absorbance of negative control (only cells, no treatment).
(§3) The compound serial dilutions from 50 µM to 1.56 µM were made in a medium and added to the cells in triplicates. The EC50 value representing the concentration of a compound causing 50% reduction of cancer cell metabolic activity was calculated using the Hill equation.

[2] = system: human triple-negative breast cancer MDA-MB-231; experiment: MTT cell viability assay, MDA-MB-231; type: cell-based; conditions: 50 µM, 72 h
Procedure: as §1, §2, §3

[3] = system: IGR39, MDA-MB-231 and Panc-1 cell lines; experiment: MTT cell viability assay, result stated for all tested cancer cell lines together; type: cell-based, human; conditions: 72 h; for EC50: Homo sapiens, range over cancer cell lines, read-out: EC50 values against the tested cancer cell lines (range)
Procedure: as §1, §2, §3

IGR39 cells = experiment: MTT, effect of 10 µM compound on IGR39 cell viability (Procedure S1); type: cell-based; conditions: Homo sapiens, IGR-39, after 48 h of incubation
Procedure: (§4) The ‘Wound healing’ assay was used to evaluate compound activity on cell migration. […] The effect of this concentration on cell viability after 24 h, 48 h and 72 h was studied in separate experiments (Figures S58–60) using the MTT assay (the procedure is described in Supplementary Materials).
(§5) Procedure S1. Evaluation of 10 µM compound concentration effect on cell line viability.
(§6) The effect of 10 µM compounds on cell viability was studied using 3-(4,5-dimethylthiazol-2-yl)-2,5-diphenyltetrazolium bromide (MTT; Sigma-Aldrich Co., St Louis, MO, USA) assay. IGR39, MDA-MB-231, and Panc-1 cells were seeded in 96-well plates (Corning) in triplicates at a volume of 100 µL at 4 × 10^3 cells/well). After 24 h, the cells were treated with 10 µM of compounds 4, 7, 8, 10, 14, 17, and 18. After 24 h, 48 h and 72 h (only Panc-1 cells), the MTT reagent has been added and cells were incubated for 4 h. Then the medium was aspirated, and the formed formazan crystals were dissolved in 100 µL DMSO (Sigma-Aldrich Co., St. Louis, MO, USA). The absorbance was measured at 570 and 630 nm using a multi-detection microplate reader. Compound effect on cell viability was calculated according to a formula:
(§7) Relative cell viability ሺ%ሻ = A− A଴
(§8) A – mean of absorbance of tested compound, A0 – mean of absorbance of blank (no cells, positive control), ANC – mean of absorbance of negative control (only cells, no treatment).

[4] = system: MDA-MB-231 cell migration; experiment: 'Wound healing' cell migration assay, MDA-MB-231; type: cell-based, human; conditions: 10 µM, both after 24 h and 48 h of incubation
Procedure: (§9) Briefly, melanoma IGR39, human triple-negative breast cancer MDA-MB-231, and pancreatic carcinoma Panc-1 cells were seeded in 24-well plates at a density of 6 × 10^4 cells/well and incubated for 48 h in previously described cell culture medium at 37°C in a humidified atmosphere containing 5% CO2. Then the scratch was made using a 100 µL pipette tip. Cells were washed once with PBS, and the fresh medium containing 10 µM of compounds 4, 7, 8, 10, 14, 17, and 18 was added. Medium containing 0.1% DMSO was used as a negative control. Cells were incubated at 37 °C in a humidified atmosphere containing 5% CO2.
(§10) The ‘Wounds’ were captured at the intervals of 0 h, 24 h, 48 h and 72 h (only for the Panc-1 cell line) from scratch under the phase contrast microscope at a 4× magnification. The wound area was analysed using the ImageJ program (National Institute of Health, Bethesda, MD, USA).

[5] = system: IGR39, MDA-MB-231 and Panc-1 tumour spheroids; experiment: 3D cell cultures (spheroids), stated for all three spheroid types; type: cell-based, human; conditions: 10 µM, 8 days of incubation
Procedure: (§11) Cancer cell spheroids were formed using the magnetic 3D Bioprinting method, as described elsewhere. Briefly, melanoma IGR39, triple-negative breast cancer MDA-MB-231 cells, pancreatic cancer Panc-1 cells, and human fibroblasts at 70% confluency in a 6-well plate were incubated with Nanoshuttle (n3D Biosciences, Inc., Houston, TX, USA) for 8 h at 37°C in a humidified atmosphere containing 5% CO2. Then cells were trypsinized, centrifuged, and seeded into an ultra-low attachment 96-well plate in a volume of 100 µL (1.5 × 10^3 cancer cells and 1.5 × 10^3 human fibroblasts/well). The plate was placed on a magnetic drive and incubated for 2 days at 37°C in a humidified atmosphere containing 5% CO2. Then the fresh medium containing 10 µM of the tested compound was added to the wells. Spheroids were captured every two days using the Olympus IX73 inverted microscope (OLYMPUS CORPORATION, Tokyo, Japan). Quantitative analysis of compound anticancer activity in spheroids was performed using ImageJ, version 1.53o (National Institutes of Health, USA) and Microsoft Office Excel 2016 software (Microsoft Corporation, Redmond, WA, USA).
(§12) On the last day of incubation, 10 µL of WST-1 reagent (Sigma-Aldrich Co, St. Louis, MO, USA) was added to each well with spheroids. After 10 h of incubation, 50 µL of liquid from each well were transferred to the new 96-well plate and the absorbance was measured at 460 and 530 nm using a multi-detection microplate reader. Spheroid cell viability was calculated using a formula provided in Section 3.2.2.

melanoma IGR39 spheroids = experiment: 3D cell cultures (spheroids), IGR39; type: cell-based, human; conditions: 10 µM, 8 days of incubation
Procedure: as §11, §12

Panc-1 cells = experiment: MTT, effect of 10 µM compound on Panc-1 cell viability (Procedure S1); type: cell-based; conditions: Homo sapiens, after 72 h
Procedure: as §4, §5, §6, §7, §8

melanoma A375 cell = system: melanoma A375 cell; design: method as in PMID 21700700; conditions: cited from earlier work
[6] = system: IGR39, MDA-MB-231 and Panc-1 cell migration; experiment: 'Wound healing' cell migration assay, stated for all tested cell lines; type: cell-based, human; conditions: 10 µM, compared to the control
Procedure: as §9, §10

| SMILES | EC50 [3] [µM] | viability at 10 µM (IGR39 cells) [%] | MDA-MB-231 cell migration [4] | activity in 3D cell cultures (spheroids) [5] | melanoma IGR39 spheroid growth (melanoma IGR39 spheroids) | melting point [°C] | viability at 10 µM (Panc-1 cells) [%] | also measured |
| --- | --- | --- | --- | --- | --- | --- | --- | --- |
| CC(C)(C)c1nc(-c2cccc(NS(=O)(=O)c3c(F)cccc3F)c2F)c(-c2ccnc(N)n2)s1 [dabrafenib] | – | – | – | – | – | – | – | concentration reducing melanoma cell viability (melanoma cell): nanomolar |
| O=C(CSc1nnc(CCNc2ccccc2)n1-c1ccccc1)NN=Cc1ccc[nH]1 [Compound 14, N′-((1H-pyrrol-2-yl)methylene)-2-((4-phenyl-5-(2-(phenylamino)ethyl)-4H-1,2,4-triazol-3-yl)thio)acetohydrazide] | 2 to 17 | 67.9 ± 1.8 | migrated slower | most active | mostly inhibited | 215 to 216 | – | activity against the IGR39 cell line (screening) [1]: least active; activity towards the triple-negative breast cancer cell line (screening) [2]: relatively higher activity |
| O=C(CSc1nnc(CCNc2ccccc2)n1-c1ccccc1)NN=Cc1ccccc1O [Compound 17, N′-(2-hydroxybenzylidene)-2-((4-phenyl-5-(2-(phenylamino)ethyl)-4H-1,2,4-triazol-3-yl)thio)acetohydrazide] | – | 76 ± 7.2 | migrated slower | most active | began to disintegrate | – | 79.7 ± 3.8 | activity against all tested cancer cell lines (screening) ([3]; 50 µM): most active |
| CN(C)/N=N/c1[nH]cnc1C(N)=O [Dacarbazine] | – | – | – | – | – | – | – | concentrations inhibiting melanoma A375 cell proliferation (melanoma A375 cell): 25 to 100 µM |
| O=C(CSc1nnc(CCNc2ccccc2)n1-c1ccccc1)NN=C1C(=O)Nc2ccccc21 [Compound 4, N′-(2-oxoindolin-3-ylidene)-2-((4-phenyl-5-(2-(phenylamino)ethyl)-4H-1,2,4-triazol-3-yl)thio)acetohydrazide] | 2 to 17 | – | – | most active | mostly inhibited | 252 to 253 | 74.3 ± 3.4 | selectivity against the melanoma IGR39 cell line (screening) [1]: moderate selectivity; effect on cell migration [6]: did not possess activity |
